Source: patent US5302705A, “6-O-methylerythromycin A oxime derivatives” (Taisho Pharmaceutical Co., Ltd., priority 1989, dated 1994)
≈ marks a conversion by molar mass, not a printed value. Read-outs that look alike come from different tables or passages of the source.

Key:
[1] = test system: S. aureus B1; assay: In vitro antibacterial activity (MIC), agar dilution technique; format: cell-based; conditions: Staphylococcus aureus
Method: (§1) The in vitro antibacterial activity of the compounds of the present invention against various test bacteria was measured by an agar dilution technique using sensitivity test agar (Eiken) as a test medium according to the MIC method specified by the Japan Chemotherapeutic Society.
(§2) The results are represented by the MIC value (minimum inhibitory concentration to microorganisms, mcg/ml), and shown in Table 1.

[2] = test system: S. aureus J-109; assay: as above; format: cell-based; conditions: Staphylococcus aureus
Method: as §1, §2

[3] = in vivo; cited from earlier work
[4] = S. aureus B1, agar dilution, sensitivity test agar (Eiken), read-out: MIC value
[5] = J109, S. aureus J-109, agar dilution, sensitivity test agar (Eiken), read-out: MIC value

SMILES	MIC [1, 4] [µg/mL]	MIC [2, 5] [µg/mL]	oral absorption [3]	MIC ([1]; B1, read-out: MIC value) [µg/mL]	MIC ([2]; J109, read-out: MIC value) [µg/mL]
CC[C@H]1OC(=O)[C@H](C)[C@@H](O[C@H]2C[C@@](C)(OC)[C@@H](O)[C@H](C)O2)[C@H](C)[C@@H](O[C@@H]2O[C@H](C)C[C@H](N(C)C)[C@H]2O)[C@](C)(OC)C[C@@H](C)C(=NOCc2c3ccccc3cc3ccccc23)[C@H](C)[C@@H](O)[C@]1(C)O [A]	6.25 (≈ 6.56 µM)	6.25 (≈ 6.56 µM)	–	–	–
CC[C@H]1OC(=O)[C@H](C)[C@@H](O[C@H]2C[C@@](C)(OC)[C@@H](O)[C@H](C)O2)[C@H](C)[C@@H](O[C@@H]2O[C@H](C)C[C@H](N(C)C)[C@H]2O)[C@](C)(OC)C[C@@H](C)C(=NOCC2CC3CCC2C3)[C@H](C)[C@@H](O)[C@]1(C)O (stereo partly shown) [Compound No. 45]	12.5 (≈ 14.3 µM)	12.5 (≈ 14.3 µM)	–	–	–
CC[C@H]1OC(=O)[C@H](C)[C@@H](O[C@H]2C[C@@](C)(OC)[C@@H](O)[C@H](C)O2)[C@H](C)[C@@H](O[C@@H]2O[C@H](C)C[C@H](N(C)C)[C@H]2O)[C@](C)(OC)C[C@@H](C)C(=NOCCCCc2ccccc2)[C@H](C)[C@@H](O)[C@]1(C)O [Compound No. 56]	25 (≈ 27.9 µM)	25 (≈ 27.9 µM)	–	–	–
CC[C@H]1OC(=O)[C@H](C)[C@@H](O[C@H]2C[C@@](C)(OC)[C@@H](O)[C@H](C)O2)[C@H](C)[C@@H](O[C@@H]2O[C@H](C)C[C@H](N(C)C)[C@H]2O)[C@](C)(OC)C[C@@H](C)C(=NOC(C)c2ccccc2)[C@H](C)[C@@H](O)[C@]1(C)O (stereo partly shown) [D]	12.5 (≈ 14.4 µM)	12.5 (≈ 14.4 µM)	–	–	–
CC[C@H]1OC(=O)[C@H](C)[C@@H](O[C@H]2C[C@@](C)(OC)[C@@H](O)[C@H](C)O2)[C@H](C)[C@@H](O[C@@H]2O[C@H](C)C[C@H](N(C)C)[C@H]2O)[C@](C)(O)C[C@@H](C)C(=O)[C@H](C)[C@@H](O)[C@]1(C)O [Erythromycin A]	–	–	low and inconsistent	–	–
CC[C@H]1OC(=O)[C@H](C)[C@@H](O[C@H]2C[C@@](C)(OC)[C@@H](O)[C@H](C)O2)[C@H](C)[C@@H](O[C@@H]2O[C@H](C)C[C@H](N(C)C)[C@H]2O)[C@](C)(O)C[C@@H](C)C(=O)[C@H](C)[C@@H](O)[C@]1(C)O [a]	–	–	–	> 100	> 100
CC[C@H]1OC(=O)[C@H](C)[C@@H](O[C@H]2C[C@@](C)(OC)[C@@H](O)[C@H](C)O2)[C@H](C)[C@@H](O[C@@H]2O[C@H](C)C[C@H](N(C)C)[C@H]2O)[C@](C)(OC)C[C@@H](C)C(=O)[C@H](C)[C@@H](O)[C@]1(C)O [b]	> 100	> 100	–	–	–
CC[C@H]1OC(=O)[C@H](C)[C@@H](O[C@H]2C[C@@](C)(OC)[C@@H](O)[C@H](C)O2)[C@H](C)[C@@H](O[C@@H]2O[C@H](C)C[C@H](N(C)C)[C@H]2O)[C@](C)(O)C[C@@H](C)/C(=N\OCOCCOC)[C@H](C)[C@@H](O)[C@]1(C)O [c]	> 100	> 100	–	–	–

Now from value to compound, other results behind:

MIC [1, 4] [µg/mL]	MIC [2, 5] [µg/mL]	SMILES	oral absorption [3]	MIC ([1]; B1, read-out: MIC value) [µg/mL]	MIC ([2]; J109, read-out: MIC value) [µg/mL]
6.25 (≈ 6.87 µM)	6.25 (≈ 6.87 µM)	CC[C@H]1OC(=O)[C@H](C)[C@@H](O[C@H]2C[C@@](C)(OC)[C@@H](O)[C@H](C)O2)[C@H](C)[C@@H](O[C@@H]2O[C@H](C)C[C@H](N(C)C)[C@H]2O)[C@](C)(OC)C[C@@H](C)C(=NOCc2ccc(C(C)(C)C)cc2)[C@H](C)[C@@H](O)[C@]1(C)O [B]	–	–	–
6.25 (≈ 6.98 µM)	6.25 (≈ 6.98 µM)	CC[C@H]1OC(=O)[C@H](C)[C@@H](O[C@H]2C[C@@](C)(OC)[C@@H](O)[C@H](C)O2)[C@H](C)[C@@H](O[C@@H]2O[C@H](C)C[C@H](N(C)C)[C@H]2O)[C@](C)(OC)C[C@@H](C)C(=NOCc2c(C)cc(C)cc2C)[C@H](C)[C@@H](O)[C@]1(C)O [Compound No. 1, 6-0-methylerythromycin A 9-[0-(2,4,6-trimethylbenzyl)oxime]]	–	–	–
12.5 (≈ 14.1 µM)	12.5 (≈ 14.1 µM)	CC[C@H]1OC(=O)[C@H](C)[C@@H](O[C@H]2C[C@@](C)(OC)[C@@H](O)[C@H](C)O2)[C@H](C)[C@@H](O[C@@H]2O[C@H](C)C[C@H](N(C)C)[C@H]2O)[C@](C)(OC)C[C@@H](C)C(=NOCc2c(F)cccc2F)[C@H](C)[C@@H](O)[C@]1(C)O [Compound No. 8]	–	–	–
12.5 (≈ 14 µM)	12.5 (≈ 14 µM)	CC[C@H]1OC(=O)[C@H](C)[C@@H](O[C@H]2C[C@@](C)(OC)[C@@H](O)[C@H](C)O2)[C@H](C)[C@@H](O[C@@H]2O[C@H](C)C[C@H](N(C)C)[C@H]2O)[C@](C)(OC)C[C@@H](C)C(=NOCc2ccc(C(C)C)cc2)[C@H](C)[C@@H](O)[C@]1(C)O [Compound No. 55]	–	–	–
> 100	> 100	CC[C@H]1OC(=O)[C@H](C)[C@@H](O[C@H]2C[C@@](C)(OC)[C@@H](O)[C@H](C)O2)[C@H](C)[C@@H](O[C@@H]2O[C@H](C)C[C@H](N(C)C)[C@H]2O)[C@](C)(OC)C[C@@H](C)C(=NOC)[C@H](C)[C@@H](O)[C@]1(C)O [d]	–	–	–
